Measured values from publication PMC7932537, “Quantitative profiling of protease specificity” (PLoS Computational Biology, 2021).

Columns and labels:
MMP-2 [1] = test: Substrate phage display with NGS: relative probability (RP) of P3-P1' tetramer clusters; format: biochemical, human; conditions: MMP2;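 also: ratio of tetramer probability after protease selection to that in naive phage library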
MMP-2 [2] = molecular target: T1, MMP-2 (Homo sapiens, UniProt P08253); test: K(obs) of individual phage substrates (set of 1369); format: biochemical; conditions: MMP2
T1 sequence (P08253 110-660): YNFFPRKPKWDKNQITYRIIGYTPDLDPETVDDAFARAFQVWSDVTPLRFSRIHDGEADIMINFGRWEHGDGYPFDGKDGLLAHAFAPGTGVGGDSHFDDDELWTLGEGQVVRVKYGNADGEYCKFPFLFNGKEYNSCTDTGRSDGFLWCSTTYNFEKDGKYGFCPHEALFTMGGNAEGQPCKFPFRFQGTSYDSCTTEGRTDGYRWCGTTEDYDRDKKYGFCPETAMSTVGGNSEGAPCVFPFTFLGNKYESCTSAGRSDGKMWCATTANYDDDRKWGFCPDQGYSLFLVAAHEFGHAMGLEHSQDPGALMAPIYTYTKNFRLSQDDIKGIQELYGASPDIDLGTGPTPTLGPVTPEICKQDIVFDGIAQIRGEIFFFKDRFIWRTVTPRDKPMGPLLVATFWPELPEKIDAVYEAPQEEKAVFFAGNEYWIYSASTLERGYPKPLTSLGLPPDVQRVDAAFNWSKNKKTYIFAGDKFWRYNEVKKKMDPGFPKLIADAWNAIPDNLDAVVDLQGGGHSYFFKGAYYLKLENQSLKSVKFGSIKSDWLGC

MMP-9 = MMP-9 (Homo sapiens, UniProt P14780); test: as above; format: biochemical; conditions: MMP9
[3] = RP of the P3-P1' tetramer contained in the substrate
[4] = individual phage substrate of the set of 1369 peptides, cleavage position marked by '-'
[5] = individual phage substrate of the set of 1369 peptides, dash in the sequence marks the cleavage position
[6] = RP of the P3-P1' tetramer contained in the substrate (substrate phage display with NGS)
[7] = individual phage substrates, set of 1369 peptides, cleavage position marked by hyphen in sequence
[8] = individual phage substrates, set of 1369 peptides, hyphen in sequence marks cleavage position

Sequence of MMP-9 (P14780 94-707): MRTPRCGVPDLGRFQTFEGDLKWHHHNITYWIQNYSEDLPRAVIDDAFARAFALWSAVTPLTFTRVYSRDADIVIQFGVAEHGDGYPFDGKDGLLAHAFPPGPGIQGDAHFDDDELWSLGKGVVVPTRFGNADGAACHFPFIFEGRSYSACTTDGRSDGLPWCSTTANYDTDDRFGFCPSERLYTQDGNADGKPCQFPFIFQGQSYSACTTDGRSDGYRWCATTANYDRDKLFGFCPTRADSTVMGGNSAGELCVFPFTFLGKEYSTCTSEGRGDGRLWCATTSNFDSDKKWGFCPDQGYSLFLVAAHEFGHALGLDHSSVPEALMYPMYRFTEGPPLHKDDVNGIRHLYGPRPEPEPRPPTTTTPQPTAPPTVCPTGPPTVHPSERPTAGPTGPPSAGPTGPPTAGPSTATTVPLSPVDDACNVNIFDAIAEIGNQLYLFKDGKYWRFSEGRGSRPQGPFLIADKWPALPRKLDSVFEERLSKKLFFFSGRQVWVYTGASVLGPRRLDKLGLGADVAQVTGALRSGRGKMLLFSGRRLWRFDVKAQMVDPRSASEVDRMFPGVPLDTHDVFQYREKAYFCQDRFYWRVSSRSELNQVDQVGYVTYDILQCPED

| Substance | Kobs (MMP-2 [2]; [4]) | Kobs (MMP-9; [5]) | Kobs (MMP-2 [2]; [7]) | Kobs (MMP-9; [8]) | relative probability (RP) (MMP-2 [1]; [3]) | relative probability (RP) (MMP-2 [1]; [6]) |
| --- | --- | --- | --- | --- | --- | --- |
| AVANS-LTASG | 7386.83 M⁻¹ s⁻¹ | 1465.65 M⁻¹ s⁻¹ | – | – | 10.0738 | – |
| AVLSN-LTASG | – | – | 8321.48 M⁻¹ s⁻¹ | 261.974 M⁻¹ s⁻¹ | – | 32.5007 |
| PRVEA-LTASG | 4205.91 M⁻¹ s⁻¹ | 231.616 M⁻¹ s⁻¹ | – | – | 10.756 | – |
| SGAQM-LRGTA | – | – | 4082.43 M⁻¹ s⁻¹ | 5461.43 M⁻¹ s⁻¹ | – | 8.608 |
| AGVRY-LTASG | – | – | 5889.62 M⁻¹ s⁻¹ | 7815.03 M⁻¹ s⁻¹ | – | 18.3724 |
| GWVSY-LKTAS | – | – | 9740.44 M⁻¹ s⁻¹ | 0 M⁻¹ s⁻¹ | – | 20.2936 |
| GGSGS-LVLRL | – | – | 1196.62 M⁻¹ s⁻¹ | 1030.73 M⁻¹ s⁻¹ | – | 7.225 |
| ARIEY-LTASG | 1816.46 M⁻¹ s⁻¹ | 654.784 M⁻¹ s⁻¹ | – | – | 5.366 | – |
| GDPYG-MRTAS | 3850.82 M⁻¹ s⁻¹ | 4922.1 M⁻¹ s⁻¹ | – | – | 27.2726 | – |
| GNPLP-QMTAS | – | – | 2157.02 M⁻¹ s⁻¹ | 1870.4 M⁻¹ s⁻¹ | – | 24.381 |
| VMLRF-LTASG | 12792.1 M⁻¹ s⁻¹ | 8321.48 M⁻¹ s⁻¹ | – | – | 10.7085 | – |
| VLPRS-WTASG | – | – | 8321.48 M⁻¹ s⁻¹ | 5889.62 M⁻¹ s⁻¹ | – | 32.796 |
| KDYLH-LTASG | 0 M⁻¹ s⁻¹ | 0 M⁻¹ s⁻¹ | – | – | 0.4077 | – |
| RQVRY-LTASG | – | – | 8321.48 M⁻¹ s⁻¹ | 7015.91 M⁻¹ s⁻¹ | – | 18.3724 |
| GHARS-LKTAS | – | – | 2916.17 M⁻¹ s⁻¹ | 1239.69 M⁻¹ s⁻¹ | – | 17.186 |
| GLAWG-LYTAS | – | – | 2916.17 M⁻¹ s⁻¹ | 2409.72 M⁻¹ s⁻¹ | – | 17.7408 |
| GMVFS-IYTAS | 690.17 M⁻¹ s⁻¹ | 2097.28 M⁻¹ s⁻¹ | – | – | 0.2237 | – |
| SGARS-MRLTA | – | – | 0 M⁻¹ s⁻¹ | 762.325 M⁻¹ s⁻¹ | – | 12.2991 |
| YEPRN-VTASG | – | – | 12792.1 M⁻¹ s⁻¹ | 10866.7 M⁻¹ s⁻¹ | – | 26.6015 |

| Substance | Kobs (MMP-2 [2]; [4]) | Kobs (MMP-9; [5]) | Kobs (MMP-2 [2]; [7]) | Kobs (MMP-9; [8]) | relative probability (RP) (MMP-2 [1]; [3]) | relative probability (RP) (MMP-2 [1]; [6]) |
| --- | --- | --- | --- | --- | --- | --- |
| LSHAW-LTASG | – | – | 12792.1 M⁻¹ s⁻¹ | 56.119 M⁻¹ s⁻¹ | – | 27.1428 |
| ESFAA-LTASG | 12792.1 M⁻¹ s⁻¹ | 56.119 M⁻¹ s⁻¹ | – | – | 18.8584 | – |
| GIVKH-LQTAS | – | – | 1711.63 M⁻¹ s⁻¹ | 836.403 M⁻¹ s⁻¹ | – | 14.8595 |
| RFPRP-ITASG | 12792.1 M⁻¹ s⁻¹ | 12792.1 M⁻¹ s⁻¹ | – | – | 33.2176 | – |
| VIPRP-LTASG | 12792.1 M⁻¹ s⁻¹ | 12792.1 M⁻¹ s⁻¹ | – | – | 34.3303 | – |
| YYPRA-LTASG | 12792.1 M⁻¹ s⁻¹ | 12792.1 M⁻¹ s⁻¹ | – | – | 35.2345 | – |
| GEVRF-LRTAS | 9740.44 M⁻¹ s⁻¹ | 2837.92 M⁻¹ s⁻¹ | – | – | 15.0438 | – |
| SGPYT-LVMTA | – | – | 517.582 M⁻¹ s⁻¹ | 8321.48 M⁻¹ s⁻¹ | – | 16.827 |
| FNPIH-LTASG | 12792.1 M⁻¹ s⁻¹ | 10866.7 M⁻¹ s⁻¹ | – | – | 26.4106 | – |
| RKPAP-WTASG | 8321.48 M⁻¹ s⁻¹ | 3253.29 M⁻¹ s⁻¹ | – | – | 31.7353 | – |
| GKVEY-LVTAS | – | – | 0 M⁻¹ s⁻¹ | 0 M⁻¹ s⁻¹ | – | 5.301 |
| TSPVA-LTASG | 12792.1 M⁻¹ s⁻¹ | 12792.1 M⁻¹ s⁻¹ | – | – | 34.2983 | – |
| SGPRP-LLATA | 12792.1 M⁻¹ s⁻¹ | 12792.1 M⁻¹ s⁻¹ | – | – | 34.3303 | – |
| SGISY-MRITA | – | – | 836.403 M⁻¹ s⁻¹ | 0 M⁻¹ s⁻¹ | – | 22.3091 |
| GYPLH-LQTAS | – | – | 9740.44 M⁻¹ s⁻¹ | 8941.32 M⁻¹ s⁻¹ | – | 34.1843 |
| GTVRS-LITAS | – | – | 8941.32 M⁻¹ s⁻¹ | 2476.66 M⁻¹ s⁻¹ | – | 12.3051 |
| STVFH-MTASG | – | – | 0 M⁻¹ s⁻¹ | 1763.55 M⁻¹ s⁻¹ | – | 5.168 |
| AHYAS-LTASG | 10866.7 M⁻¹ s⁻¹ | 0 M⁻¹ s⁻¹ | – | – | 26.9916 | – |
| SSVWH-ITASG | 323.705 M⁻¹ s⁻¹ | 836.403 M⁻¹ s⁻¹ | – | – | 1.931 | – |

Second part, led by results:

| Kobs (MMP-2 [2]; [4]) | Kobs (MMP-9; [5]) | Kobs (MMP-2 [2]; [7]) | Kobs (MMP-9; [8]) | Substance | relative probability (RP) (MMP-2 [1]; [3]) | relative probability (RP) (MMP-2 [1]; [6]) |
| --- | --- | --- | --- | --- | --- | --- |
| 9740.44 M⁻¹ s⁻¹ | 12792.1 M⁻¹ s⁻¹ | – | – | RTPIG-ITASG | 31.281 | – |
| – | – | 2761.81 M⁻¹ s⁻¹ | 2476.66 M⁻¹ s⁻¹ | VVYRG-LTASG | – | 5.445 |
| 12792.1 M⁻¹ s⁻¹ | 12792.1 M⁻¹ s⁻¹ | – | – | MSPRW-LTASG | 34.1809 | – |
| 12792.1 M⁻¹ s⁻¹ | 12792.1 M⁻¹ s⁻¹ | – | – | ELVRS-LTASG | 12.3051 | – |
| 1870.4 M⁻¹ s⁻¹ | 12792.1 M⁻¹ s⁻¹ | – | – | FGPYA-MTASG | 28.0901 | – |
| – | – | 654.784 M⁻¹ s⁻¹ | 0 M⁻¹ s⁻¹ | GVLQK-LVTAS | – | 13.1993 |
| – | – | 1610.61 M⁻¹ s⁻¹ | 27.918 M⁻¹ s⁻¹ | PRLTH-LTASG | – | 4.299 |
| 12792.1 M⁻¹ s⁻¹ | 12792.1 M⁻¹ s⁻¹ | – | – | RIPAS-LTASG | 36.4285 | – |
| – | – | 1154.21 M⁻¹ s⁻¹ | 726.013 M⁻¹ s⁻¹ | EQAWY-LTASG | – | 0.09636 |
| – | – | 9740.44 M⁻¹ s⁻¹ | 7386.83 M⁻¹ s⁻¹ | SGPAW-MKGTA | – | 34.3571 |
| – | – | 0 M⁻¹ s⁻¹ | 0 M⁻¹ s⁻¹ | TKYAY-ITASG | – | 1.709 |
| – | – | 726.013 M⁻¹ s⁻¹ | 0 M⁻¹ s⁻¹ | GKLKH-LQTAS | – | 11.1441 |
| 1763.55 M⁻¹ s⁻¹ | 0 M⁻¹ s⁻¹ | – | – | KAVNH-LTASG | 12.8499 | – |
| 12792.1 M⁻¹ s⁻¹ | 12792.1 M⁻¹ s⁻¹ | – | – | VFPMS-LTASG | 32.4868 | – |
| – | – | 0 M⁻¹ s⁻¹ | 0 M⁻¹ s⁻¹ | TSFRM-LTASG | – | 0.2112 |
| 1283.43 M⁻¹ s⁻¹ | 10866.7 M⁻¹ s⁻¹ | – | – | SGPMF-LWTTA | 18.5721 | – |

| Kobs (MMP-2 [2]; [4]) | Kobs (MMP-9; [5]) | Kobs (MMP-2 [2]; [7]) | Kobs (MMP-9; [8]) | Substance | relative probability (RP) (MMP-2 [1]; [3]) | relative probability (RP) (MMP-2 [1]; [6]) |
| --- | --- | --- | --- | --- | --- | --- |
| 8941.32 M⁻¹ s⁻¹ | 12792.1 M⁻¹ s⁻¹ | – | – | GSPYG-LLTAS | 32.9966 | – |
| – | – | 0 M⁻¹ s⁻¹ | 0 M⁻¹ s⁻¹ | YDTQH-LTASG | – | 2.922 |
| – | – | 451.441 M⁻¹ s⁻¹ | 113.394 M⁻¹ s⁻¹ | YCSLP-LTASG | – | 8.6373 |
| 7015.91 M⁻¹ s⁻¹ | 0 M⁻¹ s⁻¹ | – | – | HRHAH-LTASG | 20.0775 | – |
| 12792.1 M⁻¹ s⁻¹ | 12792.1 M⁻¹ s⁻¹ | – | – | SGPTN-LRTTA | 31.0288 | – |
| 654.784 M⁻¹ s⁻¹ | 2916.17 M⁻¹ s⁻¹ | – | – | GFAWS-LHTAS | 7.006 | – |
| 1327.88 M⁻¹ s⁻¹ | 0 M⁻¹ s⁻¹ | – | – | TVTQN-LTASG | 7.238 | – |
| – | – | 12792.1 M⁻¹ s⁻¹ | 12792.1 M⁻¹ s⁻¹ | SGPVA-LYKTA | – | 34.2983 |
| – | – | 654.784 M⁻¹ s⁻¹ | 0 M⁻¹ s⁻¹ | HIWQN-LTASG | – | 6.292 |
| – | – | 56.119 M⁻¹ s⁻¹ | 0 M⁻¹ s⁻¹ | GQQMS-LRTAS | – | 0.2763 |
| 551.253 M⁻¹ s⁻¹ | 113.394 M⁻¹ s⁻¹ | – | – | GSGRN-LRLQT | 8.812 | – |
| – | – | 142.481 M⁻¹ s⁻¹ | 142.481 M⁻¹ s⁻¹ | GSGYS-LIALT | – | 0.04707 |
| 12792.1 M⁻¹ s⁻¹ | 113.394 M⁻¹ s⁻¹ | – | – | YDISA-LTASG | 31.8319 | – |
| – | – | 12792.1 M⁻¹ s⁻¹ | 1870.4 M⁻¹ s⁻¹ | KWVSM-LTASG | – | 23.0821 |
| – | – | 0 M⁻¹ s⁻¹ | 1196.62 M⁻¹ s⁻¹ | RVTWA-LTASG | – | 0.4366 |
| 7815.03 M⁻¹ s⁻¹ | 2837.92 M⁻¹ s⁻¹ | – | – | TILRN-ITASG | 19.0698 | – |
